Measurements: EP0114750A2, “Beta-lactam antibacterial agents” (BEECHAM GROUP PLC, priority 1983, dated 1984)
Where a name gives a salt, the structure may show the parent alone. Read-outs that look alike come from different tables or passages of the source.

System: P. mirabilis 889
Assay: MIC, antibacterial activity
Assay type: cell-based
Details: Proteus mirabilis

MIC (strain P. mirabilis 889, read-out: MIC against P. mirabilis 889) [mg/L] | SMILES | MIC (889, strain number not given, read-out: MIC against P.mirabilis) [mg/L]
0.12 | CCN1CCN(C(=O)N[C@@H](C(=O)N[C@]2(NC=O)C(=O)N3C(C(=O)O)=C(CSc4nnnn4CC(N)=O)CS[C@@H]32)c2ccccc2)C(=O)C1=O [Example 13, 3-[1-carbamoylmethyl-1H-tetrazol-5-yl)thiomethyl]-7β-[2-[(4-ethyl-2,3-dioxopiperazin-1-yl)-carbonylamino]-2-phenyl-acetamido]-7a-formamidoceph-3-em-4-carboxylic acid, sodium salt] | –
– | CCN1CCN(C(=O)N[C@@H](C(=O)N[C@]2(NC=O)C(=O)N3C(C(=O)O)=C(CSc4nnnn4CC(N)=O)CS[C@@H]32)c2ccc(OC(C)=O)c(OC(C)=O)c2)C(=O)C1=O [Example 14, Sodium 3-[(1-carbamoylmethyl-1H-tetrazol-5-yl)thiomethyl]-7β-[D-2-(3,4-diacetoxyphenyl)-2-[(4-ethyl-2,3-dioxopiperazin-1-yl)carbonylamino]acetamido)-7α-formamidoceph-3-em-4-carboxylate] | 0.12
